# Values of other authors in patent US4000310A, “Pharmaceutical compositions containing 6-methyl-3,4-diphenyl-3,4,5,6-tetrahydro-2-pyrone or derivatives thereof” (Union Chimique Continentale-U.C.C, priority 1974, dated 1976).
# Tested on: animals
# Details: caffeine, general statement; cited from earlier work
smiles,measurement,value
Cn1c(=O)c2c(ncn2C)n(C)c1=O [caffeine],sleep inhibiting effect,caffeine does
